# Source: ChEMBL document CHEMBL5233223, “Dammarane-type leads panaxadiol and protopanaxadiol for drug discovery: Biological activity and structural modification” (Eur J Med Chem, 2020)
# Columns and labels:
# [1] = tested on: HCT-116; assay: Induction of apoptosis in human HCT-116 cells at 30 uM by annexin V-FITC/propidium iodide staining based flow cytometry analysis relative to control; assay type: functional
# [2] = tested on: HCT-116; assay: Antiproliferative activity against human HCT-116 cells at 10 uM incubated for 48 hrs in presence of PPD by MTS assay relative to control; assay type: functional
# [3] = tested on: HCT-116; assay: Antiproliferative activity against human HCT-116 cells at 20 uM incubated for 48 hrs in presence of PPD by MTS assay relative to control; assay type: functional
# [4] = tested on: HCT-116; assay: Induction of apoptosis in human HCT-116 cells at 30 uM in presence of PPD by annexin V-FITC/propidium iodide staining based flow cytometry analysis relative to control; assay type: functional
# [5] = tested on: HCT-116; assay: Antiproliferative activity against human HCT-116 cells at 30 uM incubated for 48 hrs in presence of PPD by MTS assay relative to control; assay type: functional
# [6] = tested on: HCT-116; assay: Antiproliferative activity against human HCT-116 cells at 10 uM incubated for 48 hrs by MTS assay relative to control; assay type: functional
# [7] = tested on: HCT-116; assay: Antiproliferative activity against human HCT-116 cells at 20 uM incubated for 48 hrs by MTS assay relative to control; assay type: functional
# [8] = tested on: HCT-116; assay: Antiproliferative activity against human HCT-116 cells at 30 uM incubated for 48 hrs by MTS assay relative to control; assay type: functional
# [9] = tested on: LNCaP; assay: Antiproliferative activity against human LNCAP cells assessed as cell growth inhibition; assay type: functional, cell-based
# [10] = tested on: PC-3; assay: Antiproliferative activity against human PC-3 cells assessed as cell growth inhibition; assay type: functional, cell-based
# [11] = tested on: MCF7; assay: Antiproliferative activity against human MCF7 cells assessed as cell growth inhibition; assay type: functional, cell-based
# [12] = tested on: HeLa; assay: Antiproliferative activity against human HeLa cells assessed as cell growth inhibition; assay type: functional, cell-based
# [13] = biological target: 11-beta-hydroxysteroid dehydrogenase 1 (Homo sapiens, UniProt P28845); assay: Inhibition of human 11beta-HSD1
# 11-beta-hydroxysteroid dehydrogenase 1 (Homo sapiens, UniProt P28845), sequence (P28845 whole entry): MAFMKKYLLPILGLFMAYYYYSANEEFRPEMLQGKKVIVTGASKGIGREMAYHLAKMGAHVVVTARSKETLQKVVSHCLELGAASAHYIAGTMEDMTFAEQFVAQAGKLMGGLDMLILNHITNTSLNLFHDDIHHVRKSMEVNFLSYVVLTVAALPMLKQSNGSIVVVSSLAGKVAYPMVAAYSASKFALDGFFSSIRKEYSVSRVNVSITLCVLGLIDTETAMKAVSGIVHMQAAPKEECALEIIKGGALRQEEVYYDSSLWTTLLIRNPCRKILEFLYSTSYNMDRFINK
# [14] = biological target: 11-beta-hydroxysteroid dehydrogenase 1 (Mus musculus, UniProt P50172); assay: Inhibition of mouse 11beta-HSD1
# 11-beta-hydroxysteroid dehydrogenase 1 (Mus musculus, UniProt P50172), sequence (P50172 whole entry): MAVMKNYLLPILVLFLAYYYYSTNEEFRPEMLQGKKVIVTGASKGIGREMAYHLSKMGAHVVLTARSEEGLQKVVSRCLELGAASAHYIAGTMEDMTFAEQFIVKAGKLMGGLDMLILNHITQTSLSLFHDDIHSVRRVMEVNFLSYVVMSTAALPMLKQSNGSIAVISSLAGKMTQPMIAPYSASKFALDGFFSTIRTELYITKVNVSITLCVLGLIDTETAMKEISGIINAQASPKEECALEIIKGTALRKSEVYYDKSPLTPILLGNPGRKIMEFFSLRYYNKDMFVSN
# [15] = tested on: Bacillus subtilis; assay: Antimicrobial activity against Bacillus subtilis assessed as bacterial growth inhibition; assay type: functional
# [16] = tested on: Staphylococcus aureus; assay: Antimicrobial activity against Staphylococcus aureus USA300 assessed as bacterial growth inhibition; assay type: functional
# [17] = tested on: HepG2 2.2.15; assay: Antiproliferative activity against human HepG2.2.15 cells assessed as cell growth inhibition; assay type: functional, cell-based
# [18] = tested on: Hepatitis B virus; assay: Antiviral activity against Hepatitis B virus infected in human HepG2.2.15 cells assessed as inhibition of viral DNA replication by MTT assay; assay type: functional, organism-based; conditions: HepG2 2.2.15
# [19] = tested on: Hepatitis B virus; assay: Antiviral activity against Hepatitis B virus infected in human HepG2.2.15 cells assessed as inhibition of HBsAg level by MTT assay; assay type: functional, organism-based; conditions: HepG2 2.2.15
# [20] = tested on: Hepatitis B virus; assay: Antiviral activity against Hepatitis B virus infected in human HepG2.2.15 cells assessed as inhibition of HBeAg level by MTT assay; assay type: functional, organism-based; conditions: HepG2 2.2.15
structure (smiles),measurement,setting,value
O=c1[nH]cc(F)c(=O)[nH]1 [FLUOROURACIL],Activity,[1],5%
same,Activity,[2],13.8%
same,Activity,[3],27.4%
same,Activity,[4],28.8%
same,Activity,[5],49.4%
same,Activity,[6],5.7%
same,Activity,[7],20.2%
same,Activity,[8],30.1%
CC1(C)CCC[C@](C)(C2CC[C@]3(C)C2[C@H](O)CC2[C@@]4(C)C/C(=C/c5ccc(O)cc5)C(=O)C(C)(C)C4CC[C@]23C)O1 (stereo partly drawn),IC50,[9],< 38.9 µM
same,IC50,[10],11.7 µM
CC1(C)CCC[C@](C)(C2CC[C@]3(C)C2[C@H](O)CC2[C@@]4(C)CC[C@H](OC(=O)c5c(Cl)c(Cl)c(Cl)c(Cl)c5C(=O)O)C(C)(C)C4CC[C@]23C)O1 (stereo partly drawn),IC50,[11],8.62 µM
CC(C)(O)[C@@H]1CC[C@@](C)([C@H]2CC[C@]3(C)C2[C@H](O)CC2[C@@]4(C)CC[C@H](O)C(C)(C)C4CC[C@]23C)O1 (stereo partly drawn),IC50,[12],17.7 µM
CC1(C)CCC[C@](C)(C2CC[C@]3(C)C2[C@H](O)CC2[C@@]4(C)C/C(=C/c5ccc(C(F)(F)F)cc5)C(=O)C(C)(C)C4CC[C@]23C)O1 (stereo partly drawn),IC50,[9],< 38.9 µM
same,IC50,[10],35.4 µM
CC(=O)O[C@@H]1CC2[C@@]3(C)CC[C@H](O)C(C)(C)C3CC[C@@]2(C)[C@]2(C)C(=O)C=CC12 (stereo partly drawn),IC50,[13],0.034 µM
CO[C@@H]1CC(=O)[C@]2(C)C1[C@H](OC(C)=O)CC1[C@@]3(C)CC[C@H](O)C(C)(C)C3CC[C@]12C (stereo partly drawn),IC50,[13],0.015 µM
same,IC50,[14],3.3 µM
CC1(C)CCC[C@](C)(C2CC[C@]3(C)C2[C@H](O)CC2[C@@]4(C)C/C(=C/c5cccs5)C(=O)C(C)(C)C4CC[C@]23C)O1 (stereo partly drawn),IC50,[9],< 38.9 µM
same,IC50,[10],47.3 µM
COc1ccc(/C=C2/C[C@@]3(C)C(CC[C@]4(C)C3C[C@@H](O)C3C([C@@]5(C)CCCC(C)(C)O5)CC[C@]34C)C(C)(C)C2=O)cc1 (stereo partly drawn),IC50,[10],39.4 µM
CC(C)(O)[C@@H]1CC[C@@](C)([C@H]2CC[C@]3(C)C2[C@H](O)CC2[C@@]4(C)CC[C@H](OC(=O)C5CCNCC5)C(C)(C)C4CC[C@]23C)O1 (stereo partly drawn),MIC,[15],2 µg/mL
same,MIC,[16],168 µg/mL
CO[C@H]1CC(=O)[C@]2(C)C1[C@H](OC(C)=O)CC1[C@@]3(C)CC[C@H](O)C(C)(C)C3CC[C@]12C (stereo partly drawn),IC50,[13],0.044 µM
same,IC50,[14],0.41 µM
CC1(C)CCC[C@](C)(C2CC[C@]3(C)C2[C@H](O)CC2[C@@]4(C)CC[C@H](OC(=O)c5cccs5)C(C)(C)C4CC[C@]23C)O1 (stereo partly drawn),IC50,[17],7.27 µM
same,IC50,[18],16.5 µM
same,IC50,[19],30.8 µM
same,IC50,[20],18.2 µM
